Test [1] deals with T1, ASGPR receptor on HepG2 cells (ternary complex with AF488-labeled antibody) (Homo sapiens, UniProt P07306).
T1 construct: host or cells: HepG2
T1 sequence (P07306 1-291): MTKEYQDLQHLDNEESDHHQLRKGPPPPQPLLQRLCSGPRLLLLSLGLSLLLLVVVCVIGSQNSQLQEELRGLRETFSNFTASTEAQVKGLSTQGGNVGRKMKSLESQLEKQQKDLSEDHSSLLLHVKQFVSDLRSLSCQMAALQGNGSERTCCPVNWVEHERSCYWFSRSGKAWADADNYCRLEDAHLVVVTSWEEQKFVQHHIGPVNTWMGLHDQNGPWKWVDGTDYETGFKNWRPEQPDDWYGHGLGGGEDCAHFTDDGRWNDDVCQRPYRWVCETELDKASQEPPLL
T1 sequence (P07307 1-311 partner): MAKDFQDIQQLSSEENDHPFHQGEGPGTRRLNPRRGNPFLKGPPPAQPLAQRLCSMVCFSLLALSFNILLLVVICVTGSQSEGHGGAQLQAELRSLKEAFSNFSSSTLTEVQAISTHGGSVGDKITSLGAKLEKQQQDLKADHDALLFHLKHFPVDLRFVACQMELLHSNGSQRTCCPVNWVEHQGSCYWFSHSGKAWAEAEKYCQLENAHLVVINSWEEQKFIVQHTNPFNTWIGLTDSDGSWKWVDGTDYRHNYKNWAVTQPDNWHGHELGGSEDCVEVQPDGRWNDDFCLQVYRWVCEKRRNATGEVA
Briefly: Ternary complex formation assay (flow cytometry, cell-associated AF488 fluorescence). It is filed as cell-based. The protocol:
Human IgG (Sigma-Aldrich, 14506) was covalently labeled with Alexa Fluor 488 using the Alexa Fluor™ 488 Protein Labeling Kit (Thermo Fisher, A10235) following the manufacturer's instructions. HepG2 cells (ATCC, HB-8065) were cultured to about 70% confluence and harvested by trypsinization. Single cell suspensions of HepG2 cells were plated in 96 well plates at 1×10^5 cells/well in cell culture media (DMEM supplemented with 10% FBS) and placed at 4° C. For studies using human IgG, cells were incubated with 100 nM AF488-labeled anti-human IgG and serial dilutions of IgG-based degrader for 1 hour at 4° C. For studies using DNP, cells were incubated with 100 nM AF488-labeled polyclonal rabbit anti-dinitrophenyl (DNP) antibodies (ThermoFisher) and serial dilutions of DNP-based degrader for 1 hour at 4° C. After washing once with ice-cold PBS containing 0.1% BSA and 0.1% sodium azide, cells were resuspended in 150 uL PBS+0.1% BSA and cell-associated AF488 fluorescence was measured by flow cytometry using the iQue® Screener PLUS Flow Cytometer (IntelliCyt). […]
(In general: In flow cytometry, cells or beads pass a laser one at a time.)

The test system of the next test is HepG2 cells. Briefly: Cellular uptake assay (high-content imaging). It counts as cell-based, human. To be noted: 100 nM AF488-labeled antibody, 6 hours at 37° C., the 25th table, read-out: Uptake EC50. The text has this: The cellular uptake assay is designed to measure compound-mediated cellular uptake of fluorescently labeled antibody following ternary complex formation with the ASGPR receptor and endocytosis of the entire complex into cells. The optimal concentration of compound will result in the maximum number of cells with intracellular antibody and is represented as the peak ratio of antibody-positive cells over the total number of cells. As with the ternary complex formation assay, too much or too little compound will result in suboptimal complex formation and fewer cells will have measurable intracellular fluorescence.
Human IgG (Sigma-Aldrich, 14506) was covalently labeled with Alexa Fluor 488 using the Alexa Fluor™ 488 Protein Labeling Kit (Thermo Fisher, A10235) following the manufacturer's instructions. HepG2 cells were plated in DMEM supplemented with 10% FBS at 5,000 cells per well in a 96-well microtiter plate and incubated for approximately 18 hours at 37° C./5% CO2. For studies using human IgG, 100 nM AF488-labeled human IgG antibodies and serial dilutions of IgG-based degrader (0.1% DMSO final concentration) were added to the cells and the mixture was incubated at 37° C. for 6 hours. For studies using DNP, 100 nM AF488-labeled DNP antibodies and serial dilutions of DNP-based degrader (0.1% DMSO final concentration) were added to the cells and the mixture was incubated at 37° C. for 6 hours. HepG2 cells were fixed in 100% methanol at −20° C. for 20 min, washed 3× with PBS, then stained with DAPI (Thermo, Cat #H3570). HepG2 cells were imaged for DAPI and Alexa Fluor 488 using the Operetta CLS, high-content analysis system (PerkinElmer). Data is presented as the ratio of the number of cells positive for hIgG or DNP (AF-488 fluorescence) over the total cell number (measured by DAPI).

Another test has as its target T2, ASGPR (Homo sapiens, UniProt P07306).
T2 construct: biotin (biotinylated)
T2 sequence (P07306 1-291): T1 sequence (P07306 1-291)
Briefly: ASGPR SPR binding. (In general: SPR reads the build-up and loss of mass on a sensor chip optically.)

In the next test the target is IgG. Briefly: IgG SPR binding. The settings on record: second table, read-out: IgG KD.
The mark [2] stands for this setting: second table, read-out: ASGPR KD.
Where [3] appears, read: 100 nM AF488-labeled antibody, 1 hour at 4° C., the 25th table, class symbols, read-out: TCF EC50.
The mark [4] stands for this setting: read-out: TCF EC50, 100 nM AF488-labeled antibody, 1 hour at 4° C., the 25th table, class symbols.
Setting [5] is: read-out: ASGPR KD, second table.

Read-outs that look alike come from different tables or passages of the source. A value given as a limit tells only on which side of the number the result lay.

For nine molecules, EC50 and Kd results are on record in patent publication US20260083851A1 (AVILAR THERAPEUTICS, INC., priority 2022, published 2026).

Usually EC50 stands for the concentration giving half of the maximal effect. The Kd is the free concentration of one partner at which half of the binding sites on the other are occupied at equilibrium, for simple one-to-one binding.

As to `COC1O[C@H](Cn2cc(CCCC(=O)N[C@H]3C[C@H]4C(=O)N[C@@H](CC(=O)O)C(=O)N[C@H]5CSSC[C@H](NC(=O)[C@H](Cc6c[nH]c7ccccc67)NC(=O)[C@H](C(C)C)NC(=O)[C@H](CC(C)C)NC(=O)[C@H](CCC(=O)O)NC(=O)CNC(=O)[C@H](CC(C)C)NC(=O)[C@H](Cc6cnc[nH]6)NC(=O)[C@H](Cc6c[nH]c7ccccc67)NC(=O)[C@H](C)NC5=O)C(=O)N[C@@H]([C@@H](C)O)C(=O)N5CCC[C@@H]5C(=O)N4C3)nn2)[C@H](O)[C@H](O)[C@H]1NC(C)=O` (stereo partly drawn) [compound 80], the 50% effective concentration (EC50) is more than 4360 nM in test [1] (100 nM AF488-labeled antibody, 1 hour at 4° C., the 25th table, numeric bounds, nM from footnote, read-out: TCF EC50) and more than 10000 nM with HepG2 cells (Homo sapiens, numeric bounds, nM from footnote).

Regarding `CC(C)C[C@@H]1NC(=O)[C@H](Cc2cnc[nH]2)NC(=O)[C@H](Cc2c[nH]c3ccccc23)NC(=O)[C@H](C)NC(=O)[C@@H]2CSSC[C@H](NC(=O)[C@H](Cc3c[nH]c4ccccc34)NC(=O)[C@H](C(C)C)NC(=O)[C@H](CC(C)C)NC(=O)[C@H](CCC(=O)O)NC(=O)CNC1=O)C(=O)N[C@@H]([C@@H](C)O)C(=O)N1CCC[C@@H]1C(=O)N1C[C@H](NC(=O)COCCOCC(=O)NC[C@H]3OC[C@H](Nc4cncc(C(F)(F)F)n4)[C@@H](O)[C@H]3O)C[C@H]1C(=O)N[C@@H](CC(=O)O)C(=O)N2` [compound 96], the EC50 in the test with HepG2 cells (Homo sapiens, class symbols) is less than 100 nM. Further, the Kd on ASGPR (setting [2]) and at IgG was less than 0.1 µM throughout.

With `CC(C)C[C@@H]1NC(=O)[C@H](Cc2cnc[nH]2)NC(=O)[C@H](Cc2c[nH]c3ccccc23)NC(=O)[C@H](C)NC(=O)[C@@H]2CSSC[C@H](NC(=O)[C@H](Cc3c[nH]c4ccccc34)NC(=O)[C@H](C(C)C)NC(=O)[C@H](CC(C)C)NC(=O)[C@H](CCC(=O)O)NC(=O)CNC1=O)C(=O)N[C@@H]([C@@H](C)O)C(=O)N1CCC[C@@H]1C(=O)N1C[C@@H](NC(=O)CCOCCOCCOCCOCCNC(=O)CCCc3cn(CCCCCC(=O)NC(COCCC(=O)NCCO[C@@H]4O[C@H](CO)[C@H](O)[C@H](O)[C@H]4Nc4cncc(C(F)(F)F)n4)COCCC(=O)NCCO[C@@H]4O[C@H](CO)[C@H](O)[C@H](O)[C@H]4Nc4cncc(C(F)(F)F)n4)nn3)C[C@H]1C(=O)N[C@@H](CC(=O)O)C(=O)N2` [compound 84], the EC50 (in test [1] (setting [3]); in the test on HepG2 cells (class symbols)) was less than 100 nM each time.

As for `CC(C)C[C@@H]1NC(=O)[C@H](Cc2cnc[nH]2)NC(=O)[C@H](Cc2c[nH]c3ccccc23)NC(=O)[C@H](C)NC(=O)[C@@H](NC(=O)[C@H](CC(=O)O)NC(=O)CCOCCOCCOCCOCCNC(=O)CCCc2cn(CCCCCC(=O)NC(COCCC(=O)NCCOCCOCCOCCOC[C@H]3CO[C@H](Nc4cncc(C(F)(F)F)n4)[C@@H](O)[C@H]3O)(COCCC(=O)NCCOCCOCCOCCOC[C@H]3OC[C@H](Nc4nccc(C(F)(F)F)n4)[C@@H](O)[C@H]3O)COCCC(=O)NCCOCCOCCOCCOC[C@H]3OC[C@H](Nc4nccc(C(F)(F)F)n4)[C@@H](O)[C@H]3O)nn2)CSSC[C@@H](C(=O)N[C@H](C(N)=O)[C@@H](C)O)NC(=O)[C@H](Cc2c[nH]c3ccccc23)NC(=O)[C@H](C(C)C)NC(=O)[C@H](CC(C)C)NC(=O)[C@H](CCC(=O)O)NC(=O)CNC1=O` [compound 94], the EC50 (in test [1] (setting [3]); with HepG2 cells (class symbols)) was less than 100 nM throughout. The Kd at ASGPR (setting [2]) is less than 0.1 µM.

`CC(C)C[C@@H]1NC(=O)[C@H](Cc2cnc[nH]2)NC(=O)[C@H](Cc2c[nH]c3ccccc23)NC(=O)[C@H](C)NC(=O)[C@@H]2CSSC[C@H](NC(=O)[C@H](Cc3c[nH]c4ccccc34)NC(=O)[C@H](C(C)C)NC(=O)[C@H](CC(C)C)NC(=O)[C@H](CCC(=O)O)NC(=O)CNC1=O)C(=O)N[C@@H]([C@@H](C)O)C(=O)N1CCC[C@@H]1C(=O)N1C[C@@H](NC(=O)c3ccc4c(c3)C(=O)c3cc(C(=O)NC[C@H]5OC[C@H](Nc6cncc(C(F)(F)F)n6)[C@@H](O)[C@H]5O)ccc3-4)C[C@H]1C(=O)N[C@@H](CC(=O)O)C(=O)N2` [compound 40]: in the test with HepG2 cells (Homo sapiens, class symbols), the EC50 lay in the range of 100 to 500 nM. For the same molecule, the equilibrium dissociation constant (Kd) on IgG was less than 0.1 µM.

Consider `CC(C)CC1NC(=O)C(Cc2cnc[nH]2)NC(=O)C(Cc2c[nH]c3ccccc23)NC(=O)C(C)NC(=O)C2CSSCC(NC(=O)C(Cc3c[nH]c4ccccc34)NC(=O)C(C(C)C)NC(=O)C(CC(C)C)NC(=O)C(CCC(=O)O)NC(=O)CNC1=O)C(=O)NC(C(C)O)C(=O)N1CCCC1C(=O)N1CC(NC(=O)c3ccc(N4CCC(CN5CCN(CC6OCC(Nc7cncc(C(F)(F)F)n7)C(O)C6O)CC5)CC4)cc3)CC1C(=O)NC(CC(=O)O)C(=O)N2` (stereo not drawn) [compound 44], for which, in test [1] (setting [4]), the EC50 was less than 100 nM. The Kd on ASGPR (setting [2]) and at IgG was less than 0.1 µM throughout.

With `CC(C)CC1NC(=O)C(Cc2cnc[nH]2)NC(=O)C(Cc2c[nH]c3ccccc23)NC(=O)C(C)NC(=O)C2CSSCC(NC(=O)C(Cc3c[nH]c4ccccc34)NC(=O)C(C(C)C)NC(=O)C(CC(C)C)NC(=O)C(CCC(=O)N(C)C)NC(=O)CNC1=O)C(=O)NC(C(C)O)C(=O)N1CCCC1C(=O)N1CC(NC(=O)CNC(COCCC(=O)NCCOCCOCCOCCOCC3OCC(Nc4cncc(C(F)(F)F)n4)C(O)C3O)COCCC(=O)NCCOCCOCCOCCOCC3OCC(Nc4cncc(C(F)(F)F)n4)C(O)C3O)CC1C(=O)NC(CC(=O)O)C(=O)N2` (stereo not drawn) [compound 53], in test [1] (setting [4]), the concentration for a half-maximal effect (EC50) was less than 100 nM. In addition, the equilibrium dissociation constant (Kd) at ASGPR (setting [5]) and at IgG was less than 0.1 µM each time.

For the molecule `CC(C)CC1NC(=O)C(Cc2cnc[nH]2)NC(=O)C(Cc2c[nH]c3ccccc23)NC(=O)C(C)NC(=O)C2CSSCC(NC(=O)C(Cc3c[nH]c4ccccc34)NC(=O)C(C(C)C)NC(=O)C(CC(C)C)NC(=O)C(CCC(=O)O)NC(=O)CNC1=O)C(=O)NC(C(C)O)C(=O)N1CCCC1C(=O)N1CC(NC(=O)CC(=O)NCC3OCC(Nc4cncc(C(F)(F)F)n4)C(O)C3O)CC1C(=O)NC(CC(=O)O)C(=O)N2` (stereo not drawn) [compound 38], the EC50 in test [1] (setting [4]) is less than 100 nM. Further, the Kd at ASGPR (setting [2]) and at IgG was less than 0.1 µM in each case.

With `CC(=O)NC1C(OCCOCCOCCOCCNC(=O)CCOCC(COCCC(=O)NCCOCCOCCOCCOC2OC(CO)C(O)C(O)C2NC(C)=O)(COCCC(=O)NCCOCCOCCOCCOC2OC(CO)C(O)C(O)C2NC(C)=O)NC(=O)CCCCCn2cc(CCCC(=O)NCCOCCOCCOCCOCCC(=O)NC3CC4C(=O)NC(CC(=O)O)C(=O)NC5CSSCC(NC(=O)C(Cc6c[nH]c7ccccc67)NC(=O)C(C(C)C)NC(=O)C(CC(C)C)NC(=O)C(CCC(=O)O)NC(=O)CNC(=O)C(CC(C)C)NC(=O)C(Cc6cnc[nH]6)NC(=O)C(Cc6c[nH]c7ccccc67)NC(=O)C(C)NC5=O)C(=O)NC(C(C)O)C(=O)N5CCCC5C(=O)N4C3)nn2)OC(CO)C(O)C1O` (stereo not drawn) [compound 87], the half-maximal effective concentration (EC50) in test [1] (setting [4]) was more than 1000 nM. Besides, the dissociation constant Kd on ASGPR (setting [5]) was more than 1 µM; at IgG, less than 0.1 µM.
